Results reported in US20110280939A1 (EVEREST PHARM. INDUSTRIAL CO., LTD., priority 2007, published 2011).
Counter-ions that a name gives are not always drawn.

Experiment: average excretion half time in human body

In the case of `CN[C@@H](C)[C@@H](O)c1ccccc1` [pseudoephedrine hydrochloride], the “average excretion half time” value is reported as 4.76 ± 0.44 h.
